The text below walks through data of article PMC10734772 (Turkish Journal of Chemistry, 2021).

Regarding `Cc1ccc(NC(=O)c2ccc(CN3CCN(c4ncccn4)CC3)cc2)cc1Br` [Compound 4a, N-(3-Bromo-4-methylphenyl)-4-((4-(pyrimidin-2-yl)piperazin-1-yl)methyl)benzamide], the melting point (as a rule, the temperature, or range, at which the solid turns liquid) was found to be 105 °C.

`COc1ccc(CN2CCN(Cc3ccc(C(=O)Nc4ccc(C)c(Br)c4)cc3)CC2)c(OC)c1OC` [Compound 4b, N-(3-Bromo-4-metylphenyl)-4-((4-(2,3,4-trimethoxybenzyl)piperazin-1-yl)methyl)benzamide]: the melting point was 135 °C.

As for `Cc1ccc(NC(=O)c2ccc(CN3CCOCC3)cc2)cc1Br` [Compound 4c, N-(3-Bromo-4-methylphenyl)-4-(morpholinomethyl)benzamide], the melting point stood at 116 °C.
